Laboratory results from ChEMBL document CHEMBL1201862, “PubChem BioAssay data set” (2004).
Active and inactive are the calls of the source.

What was measured:
ORF 73 = target: T1, ORF 73 (Human herpesvirus 8, UniProt O40947); experiment: KSHV LANA DNA-binding disruption – biochemical, fluorescence polarization, cherry-picked samples, dose response (AID 504725); parameters: species or system Human gammaherpesvirus 8;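 further: fluorescence polarization of a labeled DNA duplex reporting LANA DNA binding; potency is for inhibitors that block LANA binding to the DNA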
T1 sequence (O40947 whole entry): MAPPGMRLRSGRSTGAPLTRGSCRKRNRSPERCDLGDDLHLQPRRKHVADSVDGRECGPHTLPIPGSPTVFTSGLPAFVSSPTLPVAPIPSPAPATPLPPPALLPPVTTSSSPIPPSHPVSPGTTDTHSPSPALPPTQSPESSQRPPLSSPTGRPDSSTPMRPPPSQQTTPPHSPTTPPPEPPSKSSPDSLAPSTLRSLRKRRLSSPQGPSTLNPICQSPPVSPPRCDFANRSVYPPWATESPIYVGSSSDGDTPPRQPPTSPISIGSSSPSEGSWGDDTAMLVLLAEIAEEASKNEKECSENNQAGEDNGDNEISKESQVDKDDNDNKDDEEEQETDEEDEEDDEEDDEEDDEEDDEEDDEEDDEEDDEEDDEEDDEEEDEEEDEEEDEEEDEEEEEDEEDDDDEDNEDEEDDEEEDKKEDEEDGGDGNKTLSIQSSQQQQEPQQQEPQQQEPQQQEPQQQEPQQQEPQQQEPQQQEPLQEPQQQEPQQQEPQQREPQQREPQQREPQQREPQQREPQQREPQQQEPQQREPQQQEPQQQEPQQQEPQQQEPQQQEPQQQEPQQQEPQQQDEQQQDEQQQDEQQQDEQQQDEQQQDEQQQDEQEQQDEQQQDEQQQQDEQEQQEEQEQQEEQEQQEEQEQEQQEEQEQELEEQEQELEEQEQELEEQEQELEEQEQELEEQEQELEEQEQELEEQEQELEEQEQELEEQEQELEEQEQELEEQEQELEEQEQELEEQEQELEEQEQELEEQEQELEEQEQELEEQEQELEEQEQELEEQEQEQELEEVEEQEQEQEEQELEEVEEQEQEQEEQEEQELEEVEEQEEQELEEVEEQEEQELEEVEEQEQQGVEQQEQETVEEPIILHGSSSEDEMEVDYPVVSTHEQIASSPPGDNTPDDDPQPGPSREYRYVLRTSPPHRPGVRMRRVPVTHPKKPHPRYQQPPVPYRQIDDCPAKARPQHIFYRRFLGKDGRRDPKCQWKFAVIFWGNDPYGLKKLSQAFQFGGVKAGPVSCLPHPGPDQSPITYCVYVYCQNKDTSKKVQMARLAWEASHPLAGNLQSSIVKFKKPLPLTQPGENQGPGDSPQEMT

[1] = target: Cystic fibrosis transmembrane conductance regulator/Golgi-associated PDZ and coiled-coil motif-containing protein (Homo sapiens, UniProt P13569+Q9HD26); experiment: potency against CAL PDZ-peptide interaction – biochemical, fluorescence polarization, Cerulean-tagged CAL PDZ, cherry-picks, dose response (AID 504773)
[2] = target: Eukaryotic translation initiation factor 4E (Mus musculus, UniProt P63073); experiment: blockers of eIF4G binding by eIF4E – biochemical, TR-FRET, dose response (AID 855); format: functional;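 further: potency for disrupting eIF4E binding to eIF4GI seen as loss of FRET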
Nonstructural protein 1 = Nonstructural protein 1 (Influenza A virus, UniProt Q194T2); format: functional, Influenza A virus (A/California/07/2009(H1N1))
HeLa = experiment: viability loss in HeLa cells – cell-based, 24 h, cherry-picked samples, cytotoxicity control, dose response (AID 504726); format: functional; details: Homo sapiens;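 further: potency for cytotoxicity as loss of luminescence signal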
[3] = target: T2, Small ubiquitin-related modifier 1 (Homo sapiens, UniProt P63165); experiment: SUMO1 protein interaction blockers, potency – biochemical, fluorescence polarization, uHTS hits, dose response (AID 624382); format: functional; details: read-out: IC50_Mean
INS1 = experiment: INS-1E survival protection against cytokine death – cell-based, luminescence, retest, dose response (AID 449756); format: functional; details: Rattus norvegicus;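 further: cell death triggered by IL-1 beta plus TNF-alpha plus IFN-gamma mixture; protective hits raise ATP signal compared with cytokine alone wells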
[4] = microbe, parasite or virus in culture; format: functional; details: Mycobacterium tuberculosis
[5] = toxicity toward HepG2 liver cells – cell-based, plate reader, cherry-pick, antagonist series, cytotoxicity control, dose response (AID 743416); format: functional
[6] = viability loss in HEK293 cells – cell-based, plate reader, cherry-picked samples, cytotoxicity control, dose response (AID 743446); format: functional
[7] = NIH3T3 cell viability loss – ATP luminescence, mouse fibroblasts, counter-screen, dose response (AID 2010); format: functional, cell-based;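 further: cells exposed to compound for about 90 hours before reading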
[8] = Luminescence Cell-Based Dose Response HTS to Identify Inhibitors of 5'UTR Stem-Loop Driven Prion Protein mRNA Translation in H4 Neuroglioblastoma Cells. [Related pubchem assays: 1827 (Project Summary), 1813 (Primary HTS)]; format: functional
[9] = Trypanosoma cruzi growth suppression in host cells – NIH3T3 host cells, beta-gal luminescence, confirmation (AID 2044); format: functional, cell-based;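 further: intracellular parasites grown in NIH/3T3 mouse fibroblasts as host cells; luminescent beta-galactosidase reporter signal from transgenic T. cruzi replicating inside host cells; inhibitors lower the luminescence signal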
[10] = blockade of melanocortin 4 receptor signaling – cell-based, plate reader, cherry pick, counter-screen for LGR2 antagonist project, dose response (AID 743444); format: functional;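 further: transfected HEK 293 cells stimulated with alpha-MSH peptide; potency of inhibitors of the alpha-MSH evoked signal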
Bcl-2-related protein A1 = target: T3, Bcl-2-related protein A1 (Mus musculus, UniProt Q07440); format: functional;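 further: confirmatory dose–response counterscreen on Bfl-1, used to check hits from a UBC13 polyubiquitin inhibitor campaign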
T3 sequence (Q07440 whole entry): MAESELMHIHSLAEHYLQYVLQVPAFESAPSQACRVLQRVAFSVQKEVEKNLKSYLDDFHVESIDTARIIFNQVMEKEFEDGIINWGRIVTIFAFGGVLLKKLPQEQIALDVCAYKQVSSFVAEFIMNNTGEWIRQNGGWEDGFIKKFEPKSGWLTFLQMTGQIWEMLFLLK

[11] = target: T4, Type-1 angiotensin II receptor (Homo sapiens, UniProt P30556); experiment: agonist activity at AGTR1 – cell-based, uHTS hits, selectivity assay for APJ receptor agonist project, dose response (AID 488865); format: functional;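 further: beta-arrestin recruitment to AT1 measured by enzyme fragment complementation luminescence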
T4 sequence (P30556 whole entry): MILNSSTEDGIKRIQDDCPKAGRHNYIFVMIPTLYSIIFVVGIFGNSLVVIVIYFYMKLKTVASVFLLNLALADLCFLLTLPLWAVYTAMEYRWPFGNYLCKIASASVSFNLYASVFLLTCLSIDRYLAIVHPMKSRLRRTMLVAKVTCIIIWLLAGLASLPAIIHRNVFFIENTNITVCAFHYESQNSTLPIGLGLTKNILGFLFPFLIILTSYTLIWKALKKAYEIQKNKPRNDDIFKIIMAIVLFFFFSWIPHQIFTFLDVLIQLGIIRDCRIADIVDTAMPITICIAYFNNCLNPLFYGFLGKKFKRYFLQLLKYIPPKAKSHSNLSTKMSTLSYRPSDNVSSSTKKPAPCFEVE

[12] = luciferase reporter signal suppression in cells – H4 neuroglioma cells, luminescence, dose response (AID 1990); format: functional, cell-based
[13] = target: T5, Rac GTPase-activating protein 1 (Homo sapiens, UniProt Q9H0H5); experiment: blockers of MgcRacGAP-driven Rac1 GTP hydrolysis – biochemical, ADP Hunter fluorescence, primary and confirmatory, confirmation (AID 624330); format: functional
T5 sequence (Q9H0H5 whole entry): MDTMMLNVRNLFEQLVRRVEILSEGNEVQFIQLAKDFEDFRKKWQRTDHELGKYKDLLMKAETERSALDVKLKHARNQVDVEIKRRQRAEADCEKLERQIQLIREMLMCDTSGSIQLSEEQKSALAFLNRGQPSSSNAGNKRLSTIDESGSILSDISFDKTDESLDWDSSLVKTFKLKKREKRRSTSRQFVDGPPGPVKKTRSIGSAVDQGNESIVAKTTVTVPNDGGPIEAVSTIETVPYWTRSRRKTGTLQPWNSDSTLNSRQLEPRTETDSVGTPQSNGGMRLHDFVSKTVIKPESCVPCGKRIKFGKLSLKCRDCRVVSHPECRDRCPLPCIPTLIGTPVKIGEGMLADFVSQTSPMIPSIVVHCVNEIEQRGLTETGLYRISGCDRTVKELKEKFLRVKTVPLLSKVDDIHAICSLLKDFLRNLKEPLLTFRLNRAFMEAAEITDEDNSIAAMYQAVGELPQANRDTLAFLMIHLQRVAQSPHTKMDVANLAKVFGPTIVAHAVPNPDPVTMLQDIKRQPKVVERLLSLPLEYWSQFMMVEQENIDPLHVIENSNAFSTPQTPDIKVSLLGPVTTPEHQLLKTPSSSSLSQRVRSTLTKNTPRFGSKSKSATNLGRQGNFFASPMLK

[14] = HEK-293T viability loss after treatment – luminescence, T-cell screen hits, cytotoxicity control for TCR NF-kB inhibitor project, dose response (AID 489026); format: functional, cell-based;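 further: cells exposed to compound about 14 hours before the viability readout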
[15] = target: T2, Small ubiquitin-related modifier 1; experiment: SUMO1 protein-protein binding blockers, potency – biochemical, FRET, dose response (AID 624383); format: functional; details: read-out: IC50_Mean
[16] = blockers of bursicon-stimulated LGR2 cAMP reporter – cell-based, HEK293, CRE-luciferase reporter, cherry pick, set 2, dose response (AID 743343); format: functional;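 further: transfected cells were stimulated with diluted bursicon conditioned medium after compound addition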
[17] = alpha-synuclein stem-loop luciferase translation blockers – H4 neuroglioma cells, luminescence, confirmation (AID 1988); format: functional, cell-based
[18] = viability loss in HeLa cells – cytotoxicity control for MgcRacGAP inhibitor project, dose response (AID 624300); format: functional
HEK293 = experiment: EBV LMP1 TES2 canonical NF-kB signalling blockers – cell-based, HEK293, luciferase, cherry-pick, dose response (AID 588343); format: functional; details: Homo sapiens
[19] = target: T6, Ubiquitin-conjugating enzyme E2 N (Homo sapiens, UniProt P61088); format: functional
T6 sequence (P61088 whole entry): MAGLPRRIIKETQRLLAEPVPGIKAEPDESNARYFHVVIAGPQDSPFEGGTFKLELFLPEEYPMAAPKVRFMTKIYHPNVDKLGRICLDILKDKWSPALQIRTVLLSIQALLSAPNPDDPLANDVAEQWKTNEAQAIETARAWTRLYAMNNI

[20] = target: T6, Ubiquitin-conjugating enzyme E2 N; format: functional; remark: listed apart in the source
[21] = A549 cell cytotoxicity, dose response, cytotoxicity control, plate reader, cherry-pick, antagonist series (AID 743412); format: functional, cell-based

T2 sequence (P63165 whole entry): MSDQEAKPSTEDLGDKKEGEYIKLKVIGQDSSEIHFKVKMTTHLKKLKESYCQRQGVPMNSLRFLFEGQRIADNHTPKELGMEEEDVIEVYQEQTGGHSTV
Sequence of Cystic fibrosis transmembrane conductance regulator/Golgi-associated PDZ and coiled-coil motif-containing protein (P13569 whole entry, other chains not shown): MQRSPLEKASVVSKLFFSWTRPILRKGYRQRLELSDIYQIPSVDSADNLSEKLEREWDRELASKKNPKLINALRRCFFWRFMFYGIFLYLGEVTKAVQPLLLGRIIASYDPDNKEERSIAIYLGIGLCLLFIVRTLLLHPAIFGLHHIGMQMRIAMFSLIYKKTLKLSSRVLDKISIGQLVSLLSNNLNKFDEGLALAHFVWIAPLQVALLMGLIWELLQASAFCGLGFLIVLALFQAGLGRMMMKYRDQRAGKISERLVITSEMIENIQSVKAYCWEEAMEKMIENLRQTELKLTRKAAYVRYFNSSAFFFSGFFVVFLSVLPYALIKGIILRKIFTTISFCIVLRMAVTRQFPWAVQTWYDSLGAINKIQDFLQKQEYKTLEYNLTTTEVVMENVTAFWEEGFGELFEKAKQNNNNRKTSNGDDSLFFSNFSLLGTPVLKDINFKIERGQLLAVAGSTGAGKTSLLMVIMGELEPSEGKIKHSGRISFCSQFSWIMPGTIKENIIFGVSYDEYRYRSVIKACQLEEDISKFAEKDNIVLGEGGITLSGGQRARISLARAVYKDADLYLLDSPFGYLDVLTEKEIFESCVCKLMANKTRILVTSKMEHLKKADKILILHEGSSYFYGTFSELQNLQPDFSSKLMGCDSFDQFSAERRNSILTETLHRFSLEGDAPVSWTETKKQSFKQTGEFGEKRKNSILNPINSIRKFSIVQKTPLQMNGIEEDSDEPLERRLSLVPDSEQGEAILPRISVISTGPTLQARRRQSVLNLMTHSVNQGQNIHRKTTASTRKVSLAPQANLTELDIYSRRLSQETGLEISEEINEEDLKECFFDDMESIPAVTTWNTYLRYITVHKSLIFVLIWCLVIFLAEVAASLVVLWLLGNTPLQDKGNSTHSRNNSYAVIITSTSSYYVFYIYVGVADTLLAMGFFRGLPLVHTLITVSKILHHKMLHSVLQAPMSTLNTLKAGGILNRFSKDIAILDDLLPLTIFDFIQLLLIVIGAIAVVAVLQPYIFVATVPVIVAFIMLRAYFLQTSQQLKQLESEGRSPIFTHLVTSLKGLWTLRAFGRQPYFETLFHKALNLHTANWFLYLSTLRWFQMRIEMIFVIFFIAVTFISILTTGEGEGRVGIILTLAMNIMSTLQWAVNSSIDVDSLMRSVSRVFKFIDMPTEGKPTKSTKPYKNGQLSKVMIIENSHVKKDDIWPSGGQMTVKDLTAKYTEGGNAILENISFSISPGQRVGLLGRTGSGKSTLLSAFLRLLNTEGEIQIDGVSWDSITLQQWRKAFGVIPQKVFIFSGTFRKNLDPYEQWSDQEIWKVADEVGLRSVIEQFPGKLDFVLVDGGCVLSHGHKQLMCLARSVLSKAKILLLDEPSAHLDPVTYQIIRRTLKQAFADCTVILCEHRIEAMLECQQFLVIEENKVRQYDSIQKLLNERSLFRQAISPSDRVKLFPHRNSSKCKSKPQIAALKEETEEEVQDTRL
Sequence of Eukaryotic translation initiation factor 4E (P63073 whole entry): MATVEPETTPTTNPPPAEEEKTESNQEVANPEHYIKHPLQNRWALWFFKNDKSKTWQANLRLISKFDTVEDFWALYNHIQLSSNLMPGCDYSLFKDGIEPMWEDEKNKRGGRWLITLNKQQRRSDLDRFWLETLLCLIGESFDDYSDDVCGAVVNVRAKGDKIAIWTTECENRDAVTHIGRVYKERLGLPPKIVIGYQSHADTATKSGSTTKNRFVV
Sequence of Nonstructural protein 1 (Q194T2 whole entry): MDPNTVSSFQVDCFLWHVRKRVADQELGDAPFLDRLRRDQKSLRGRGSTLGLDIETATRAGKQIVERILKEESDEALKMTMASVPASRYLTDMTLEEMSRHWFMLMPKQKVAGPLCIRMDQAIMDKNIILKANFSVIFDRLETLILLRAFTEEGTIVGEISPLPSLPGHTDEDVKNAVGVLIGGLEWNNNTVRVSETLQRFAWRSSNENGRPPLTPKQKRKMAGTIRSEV

In the case of `COc1ccc(OC)c(-c2c3cc(O)c(=O)cc-3oc3cc(O)c(O)cc23)c1`, the AC50 (ORF 73) is reported as 1.56 µM (active), the AC50 [1] is reported as 13.3 µM (active) and the IC50 [2] is reported as 15.7 µM (active). The IC50 (Nonstructural protein 1) was 20.3 µM (active) and the AC50 (HeLa) was 135 µM (active).

With `COc1ccc(/C=N/Nc2cc(C)nc3ccc(OC)cc23)c(OC)c1` the IC50 [3] was > 66.6 µM (inactive), the AC50 (INS1) was 7.95 µM (active) and the CC50 [4] was 1.77 µM (active). For the same compound, the AC50 [5] was 3.97 µM (active), the AC50 [1] was 38.7 µM (active) and the AC50 [6] was 9.83 µM (active). The EC50 [7] was 7.61 µM (active), the EC50 [8] was 8.29 µM (active) and the EC50 [9] was 0.72 µM (active). For the same compound, the AC50 [10] was 10.8 µM (active), the IC50 (Bcl-2-related protein A1) was 11.4 µM (active) and the EC50 [11] was > 100 µM (inactive). For the same compound, the EC50 [12] was 8.87 µM (active), the IC50 [13] was 36.4 µM (active) and the IC50 [14] was 28.1 µM (inactive). The IC50 [15] was 9.36 µM (active), the AC50 [16] was 8.34 µM (active) and the EC50 [17] was 8.01 µM (active). The CC50 [18] was 17.9 µM (active), the AC50 (HEK293) was 3.43 µM (active) and the IC50 [19] was 9.1 µM (active). The IC50 [20] was 6.39 µM (active) and the AC50 [21] was 4.32 µM (active).
